Laboratory results from patent US20140186869A1, “METHOD FOR INHIBITING PROTEASE IN BIOLOGICAL SAMPLE CONTAINING PANCREATIC JUICE COMPONENTS” (OLYMPUS CORPORATION, priority 2011, published 2014).
Where two headings read alike, the source gives them in different places.

Key:
[1] = test system: protease present in pancreatic juice; assay: Protease activity (fluorescent-labeled casein, same manner as Example 1) in pancreatic juice specimens; type: biochemical; conditions: for concentration at which high levels of protease inhibitory effects against protease present in pancreatic juice are obtained: Example 7, pancreatin and two pancreatic juice specimens, various final concentrations, FIGS. 9-11
[2] = test system: protease present in pancreatic juice; assay: as above; type: biochemical; conditions: pancreatin and two pancreatic juice specimens, 1 mM PMSF, 4 mM AEBSF; for protease inhibitory effects against protease present in pancreatic juice: Example 4, 5 mM p-APMSF, 100 μl TLCK, 100 μM TPCK, FIG. 5; for protease inhibitory effect (fluorescence = degraded amount of casein): Example 3, 0.3 μM aprotinin, 50 μM leupeptin, FIG. 4
Experimental: After adding each protease inhibitor cocktail so that the final concentration thereof was equal to manufacturer's recommended concentration (1×) or a concentration equal to 5 times the recommended concentration (5×), protease activity was measured using a simulated artificial pancreatic juice in the form of “pancreatin”, a digestive enzyme produced from porcine pancreas in which pancreatic enzymes are present in an activated state. Protease activity was measured using EnzCheck Protease Assay Kits (Molecular Probes). […] In addition, a sample solution in which fluorescent-labeled casein was added directly to pancreatin (inhibitor (−), DMSO (−)), a sample solution in which DMSO was added to pancreatin so that the added amount of DMSO was the same as in the case of adding each protease inhibitor cocktail at the manufacturer's recommended concentration (1×) (inhibitor (−), DMSO 1×), and a sample solution in which DMSO was added to pancreatin so that the added amount of DMSO was the same as in the case of adding each protease inhibitor cocktail at a concentration equal to five times the manufacturer's recommended concentration (5×) (inhibitor (−), DMSO 5×) were prepared for use as controls, and these sample solutions were measured for protease activity in the same manner as the protease inhibitor cocktails.
There are four types of serine protease inhibitors contained in Protease Inhibitor Mix (GE) consisting of aprotinin, leupeptin, PMSF and AEBSF (concentrations are not disclosed). Therefore, protease activity was measured in the same manner as Example 1 using pancreatin and two types of pancreatic juice specimens for 15 combinations of the four types of inhibitors prepared so that the final concentration was equal to the maximum recommended concentration for each protease inhibitor alone. Furthermore, the maximum recommended concentrations consisted of 0.3 μM for aprotinin (Roche), 50 μM for leupeptin (Roche), 1 mM for PMSF (Roche) and 4 mM for AEBSF (Roche). In addition, protease activity was also measured in the same manner for a sample solution to which protease inhibitor was not added (Control Sample Solution 1), a sample solution containing the recommended concentration of Inhibitor Cocktail 1 (Complete, Roche) (Control Sample Solution 2), a sample solution containing Inhibitor Cocktail 1 at 5 times the recommended concentration (5×) (Control Sample Solution 3), a sample solution containing the recommended concentration of Inhibitor Cocktail 4 (Protease Inhibitor Mix, GE) (Control Sample Solution 4), and a sample solution containing Inhibitor Cocktail 4 at five times the recommended concentration (5×) (Control Sample Solution 5).
More specifically, a sample solution obtained by adding 1 mM PMSF and 4 mM AEBSF, a sample solution obtained by adding 1 mM PMSF, a sample solution obtained by adding 4 mM AEBSF, a sample solution obtained by adding 5 mM p-APMSF, a sample solution obtained by adding […] TLCK and a sample solution obtained by adding 100 μM TPCK were prepared for use as protease inhibitors, and the protease activity of each sample solution was measured in the same manner as Example 1 using pancreatin and two types of pancreatic juice specimens. In addition, the protease activities of a sample solution to which protease inhibitor was not added (inhibitor (−)), a sample solution containing Inhibitor Cocktail 1 at the recommended concentration (Complete, Roche), a sample solution containing Inhibitor Cocktail 1 at 5 times the recommended concentration (5×), a sample solution containing Inhibitor Cocktail 4 at the recommended concentration (Protease Inhibitor Mix, GE), and a sample solution containing Inhibitor Cocktail 4 at five times the recommended concentration (5×) were also measured in the same manner.

[3] = test system: protease in duodenal juice specimens; assay: Protease activity (fluorescent-labeled casein) in duodenal juice specimens; type: biochemical; conditions: Example 9; four duodenal juice specimens; 1 mM PMSF + 4 mM AEBSF plus 0.3 mM Aprotinin or 1 mM TLCK; FIG. 14
Experimental: After adding each protease inhibitor cocktail so that the final concentration thereof was equal to manufacturer's recommended concentration (1×) or a concentration equal to 5 times the recommended concentration (5×), protease activity was measured using a simulated artificial pancreatic juice in the form of “pancreatin”, a digestive enzyme produced from porcine pancreas in which pancreatic enzymes are present in an activated state. Protease activity was measured using EnzCheck Protease Assay Kits (Molecular Probes). More specifically, fluorescent-labeled casein provided with the kits was added to a pancreatin solution to which each protease inhibitor cocktail had been added, and after incubating for 2 hours at 37° C., fluorescence was measured at a fluorescence wavelength of Ex/Em=485/535 nm. […]
More specifically, a sample solution obtained by adding 1 mM PMSF and 4 mM AEBSF, a sample solution obtained by adding 1 mM PMSF, 4 mM AEBSF and 0.3 mM Aprotinin, and a sample solution obtained by adding 1 mM PMSF, 4 mM AEBSF and 1 mM TLCK were prepared as protease inhibitors, and the protease activity of each sample solution was measured in the same manner as Example 1 using four types of duodenal juice specimens. The protease activity of a sample solution to which protease inhibitor was not added (Inhibitor (−)) was also measured in the same manner as a control.

[4] = test system: pancreatin (simulated artificial pancreatic juice; pancreatic enzymes in an activated state); assay: Protease activity, EnzCheck Protease Assay Kits (fluorescent-labeled casein), in pancreatin solution; type: biochemical, porcine; conditions: Example 5; 0.0003 mM to 0.3 mM Aprotinin; FIGS. 6 and 7
Experimental: […] 5 times the recommended concentration (5×), protease activity was measured using a simulated artificial pancreatic juice in the form of “pancreatin”, a digestive enzyme produced from porcine pancreas in which pancreatic enzymes are present in an activated state. Protease activity was measured using EnzCheck Protease Assay Kits (Molecular Probes). More specifically, fluorescent-labeled casein provided with the kits was added to a pancreatin solution to which each protease inhibitor cocktail had been added, and after incubating for 2 hours at 37° C., fluorescence was measured at a fluorescence wavelength of Ex/Em=485/535 nm. […]
Fluorescence plotted on the vertical axis represents the degraded amount of casein, and that value was estimated to be the value of protease activity.

[5] = Example 5, pancreatic juice specimens, 10-50 μm Elastase Inhibitor I, 1-10 mM EDTA, 0.0003-0.3 mM Aprotinin, 0.005-5 mM Leupeptin, 0.01-1 mM TLCK or TPCK, FIGS. 6 and 7

`NCCc1ccc(S(=O)(=O)F)cc1` [AEBSF, 4-(2-aminoethyl)-benzenesulfonyl fluoride] was tested, and the “concentration at which high levels of protease inhibitory effects against protease present in pancreatic juice are obtained” value [1] was at least 4 mM and the “protease inhibitory effects against protease present in pancreatic juice” value [2] was “high levels of protease inhibitory effects”.
In the case of `O=C(O)CN(CCN(CC(=O)O)CC(=O)O)CC(=O)O` [EDTA], the “inhibitory effects against protease present in pancreatic juice” value [1] was “hardly any inhibitory effects”.
For `CC(=O)N[C@@H](CC(C)C)C(=O)N[C@@H](CC(C)C)C(=O)N[C@H](C=O)CCCNC(=N)N` [Leupeptin], the “inhibitory effects against protease present in pancreatic juice” value [1, 5] was “hardly any inhibitory effects” and the “protease inhibitory effect (fluorescence = degraded amount of casein)” value [2] was “hardly any effect on protease activity”.
In the case of `O=S(=O)(F)Cc1ccccc1` [PMSF, phenylmethylsulfonyl fluoride], the “concentration at which high levels of protease inhibitory effects against protease present in pancreatic juice are obtained” value [1] was at least 1 mM and the “protease inhibitory effects against protease present in pancreatic juice” value [2] was “high levels of protease inhibitory effects”.
In the case of `Cc1ccc(S(=O)(=O)N[C@@H](CCCCN)C(=O)CCl)cc1` [TLCK, N-a-tosyl-L-lysine chloromethyl ketone], the “additional inhibitory effects when added to PMSF and AEBSF, compared with PMSF and AEBSF only” value [3] was “additional inhibitory effects were observed”, the “inhibitory effects against protease present in pancreatic juice” value [1, 5] was “hardly any inhibitory effects” and the “protease inhibitory effects against protease present in pancreatic juice” value [2] was “low levels of protease inhibitory effects”.
With `Cc1ccc(S(=O)(=O)N[C@@H](Cc2ccccc2)C(=O)CCl)cc1` [TPCK, N-a-tosyl-L-phenylalanine chloromethyl ketone] the “inhibitory effects against protease present in pancreatic juice” value [1, 5] was “slight protease inhibitory effects” and the “protease inhibitory effects against protease present in pancreatic juice” value [2] was “low levels of protease inhibitory effects”.
Aprotinin was tested, and the “protease inhibitory effects against pancreatin (simulated pancreatic juice)” value [4] was “weak protease inhibitory effects”, the “additional inhibitory effects when added to PMSF and AEBSF, compared with PMSF and AEBSF only” value [3] was “additional inhibitory effects were not observed” and the “inhibitory effects against protease present in pancreatic juice” value [1, 5] was “hardly any effects”. For the same compound, the “protease inhibitory effect (fluorescence = degraded amount of casein)” value [2] was “hardly any effect on protease activity”.
For “p-amidinophenylmethane sulfonyl fluoride hydrochloride [p-APMSF]”, the “concentration at which high levels of protease inhibitory effects against protease present in pancreatic juice are obtained” value [1] was at least 2 mM and the “protease inhibitory effects against protease present in pancreatic juice” value [2] was “high levels of protease inhibitory effects”.
